Results from PubChem BioAssay (NCI).
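Assay format: 96-well plates, 48-hour exposure. TGI is the concentration that stops growth completely.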

Legend:
Assay in all cases: NCI tumour cell line growth inhibition, 48 h
OVCAR-3 ovarian = test system: OVCAR-3 ovarian
HOP-92 NSCLC = test system: HOP-92 NSCLC
RXF 393 renal = test system: RXF 393 renal
NCI-H522 lung = test system: NCI-H522 lung
HCT-15 colon = test system: HCT-15 colon
KM12 colon = test system: KM12 colon
DU-145 prostate = test system: DU-145 prostate
SF-268 CNS = test system: SF-268 CNS
PC-3 prostate = test system: PC-3 prostate
UACC-62 melanoma = test system: UACC-62 melanoma
M14 melanoma = test system: M14 melanoma
SN12C renal = test system: SN12C renal
786-0 renal = test system: 786-0 renal
NCI-H23 lung = test system: NCI-H23 lung
SK-MEL-5 melanoma = test system: SK-MEL-5 melanoma
NCI-H226 lung = test system: NCI-H226 lung
EKVX NSCLC = test system: EKVX NSCLC
HCT-116 colon = test system: HCT-116 colon
SNB-75 CNS = test system: SNB-75 CNS
A498 renal = test system: A498 renal
BT-549 breast = test system: BT-549 breast
SR leukemia = test system: SR leukemia
MOLT-4 leukemia = test system: MOLT-4 leukemia
MDA-MB-435 = test system: MDA-MB-435
MDA-MB-231 breast = test system: MDA-MB-231 breast
HL-60(TB) leukemia = test system: HL-60(TB) leukemia
SF-539 CNS = test system: SF-539 CNS
HOP-62 NSCLC = test system: HOP-62 NSCLC
HS 578T breast = test system: HS 578T breast
SK-MEL-28 melanoma = test system: SK-MEL-28 melanoma
SK-OV-3 ovarian = test system: SK-OV-3 ovarian
UACC-257 melanoma = test system: UACC-257 melanoma
U251 CNS = test system: U251 CNS
SW-620 colon = test system: SW-620 colon
SK-MEL-2 melanoma = test system: SK-MEL-2 melanoma
COLO 205 colon = test system: COLO 205 colon
LOX IMVI melanoma = test system: LOX IMVI melanoma
NCI-H460 lung = test system: NCI-H460 lung
CCRF-CEM leukemia = test system: CCRF-CEM leukemia
OVCAR-8 ovarian = test system: OVCAR-8 ovarian
OVCAR-5 ovarian = test system: OVCAR-5 ovarian
NCI/ADR-RES ovarian = test system: NCI/ADR-RES ovarian
HCC-2998 colon = test system: HCC-2998 colon
IGROV1 ovarian = test system: IGROV1 ovarian
RPMI-8226 leukemia = test system: RPMI-8226 leukemia
A549 NSCLC = test system: A549 NSCLC
MCF7 breast = test system: MCF7 breast
SF-295 CNS = test system: SF-295 CNS
OVCAR-4 ovarian = test system: OVCAR-4 ovarian
ACHN renal = test system: ACHN renal
TK-10 renal = test system: TK-10 renal
HT29 colon = test system: HT29 colon
MALME-3M melanoma = test system: MALME-3M melanoma
CAKI-1 renal = test system: CAKI-1 renal
MDA-N = test system: MDA-N
T-47D breast = test system: T-47D breast
SNB-19 CNS = test system: SNB-19 CNS
UO-31 renal = test system: UO-31 renal
K-562 leukemia = test system: K-562 leukemia

Measured: TGI

COc1cc(OC)c2nc3occc3c(OC)c2c1
> 100 µM: OVCAR-3 ovarian | HOP-92 NSCLC | RXF 393 renal | NCI-H522 lung | HCT-15 colon | KM12 colon | DU-145 prostate | SF-268 CNS | PC-3 prostate | UACC-62 melanoma | M14 melanoma | SN12C renal | 786-0 renal | NCI-H23 lung | SK-MEL-5 melanoma | NCI-H226 lung | EKVX NSCLC | HCT-116 colon | SNB-75 CNS | A498 renal | BT-549 breast | SR leukemia | MOLT-4 leukemia | MDA-MB-435 | MDA-MB-231 breast | HL-60(TB) leukemia | SF-539 CNS | HOP-62 NSCLC | HS 578T breast | SK-MEL-28 melanoma | SK-OV-3 ovarian | UACC-257 melanoma | U251 CNS | SW-620 colon | SK-MEL-2 melanoma | COLO 205 colon | LOX IMVI melanoma | NCI-H460 lung | CCRF-CEM leukemia | OVCAR-8 ovarian | OVCAR-5 ovarian | NCI/ADR-RES ovarian | HCC-2998 colon | IGROV1 ovarian | RPMI-8226 leukemia | A549 NSCLC | MCF7 breast | SF-295 CNS | OVCAR-4 ovarian | ACHN renal | TK-10 renal | HT29 colon | MALME-3M melanoma | CAKI-1 renal | MDA-N | T-47D breast | SNB-19 CNS | UO-31 renal

CC1(C)COP(=S)(c2ccccn2)O[C@@H]1c1ccccc1 (stereo partly drawn)
> 100 µM: HOP-92 NSCLC | RXF 393 renal | NCI-H522 lung | HCT-15 colon | KM12 colon | DU-145 prostate | SF-268 CNS | PC-3 prostate | UACC-62 melanoma | M14 melanoma | SN12C renal | 786-0 renal | NCI-H23 lung | NCI-H226 lung | EKVX NSCLC | HCT-116 colon | SNB-75 CNS | A498 renal | BT-549 breast | SR leukemia | MOLT-4 leukemia | MDA-MB-435 | MDA-MB-231 breast | HL-60(TB) leukemia | K-562 leukemia | HOP-62 NSCLC | HS 578T breast | SK-MEL-28 melanoma | SK-OV-3 ovarian | UACC-257 melanoma | U251 CNS | SW-620 colon | COLO 205 colon | LOX IMVI melanoma | NCI-H460 lung | CCRF-CEM leukemia | OVCAR-8 ovarian | OVCAR-5 ovarian | NCI/ADR-RES ovarian | HCC-2998 colon | IGROV1 ovarian | A549 NSCLC | MCF7 breast | SF-295 CNS | OVCAR-4 ovarian | ACHN renal | TK-10 renal | HT29 colon | MALME-3M melanoma | CAKI-1 renal | MDA-N | T-47D breast | SNB-19 CNS | UO-31 renal
91.1 µM: SK-MEL-5 melanoma
